Data: US10570179B2, “Substituted urea depsipeptide analogs as activators of the CLPP endopeptidase” (priority 2016, dated 2020)
In brackets after ≈: the same amount, converted by molar mass. Read-outs that look alike come from different tables or passages of the source. Numbered stars: 1 amine (or outer) side, 2 acyl side, 3 side chain; on linkers, the order of the positions; unused ones are H or OH. Bridge positions count the residues as written; N and C are the ends. Square brackets hold non-standard residues; d marks the D form. Peptide text beside a SMILES is read from it. * marks the point of attachment. Phe(3,5-Me2) = Cc1cc(C)cc(C[C@H](N)C(=O)O)c1; Phe(3-Me) = Cc1cccc(C[C@H](N)C(=O)O)c1; NH(4-Cl-2-F-phenyl) = Fc1cc(Cl)ccc1N*; Pro(4R-Me) = C[C@H]1CN[C@H](C(=O)O)C1; Hyp = O=C(O)[C@@H]1C[C@@H](O)CN1; NH(4-Me-phenyl) = Cc1ccc(N*)cc1; aThr = C[C@H](O)[C@H](N)C(=O)O; Pip = O=C(O)[C@@H]1CCCCN1; 4Abz = Nc1ccc(C(=O)O)cc1; CO = O=C([*:1])[*:2]

Columns and labels:
[1] = system: E. faecails; assay: Minimal inhibitory concentration, microbroth dilution; format: cell-based; settings: Enterococcus faecalis
In short: (§1)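 MICs were determined by CLSI broth microdilution, using two-fold compound dilutions from a final 200 μM and about 10^5 cfu/mL inoculum. Plates were incubated aerobically at 37 °C overnight. The MIC was read visually as the lowest concentration preventing growth.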

[2] = system: MRSA NRS70; assay: as above; format: cell-based; settings: Staphylococcus aureus
In short: as §1

[3] = system: S. aureus ATCC 29213; assay: as above; format: cell-based; settings: Staphylococcus aureus
In short: as §1

[4] = system: S. aureus USA 300; assay: as above; format: cell-based; settings: Staphylococcus aureus
In short: as §1

[5] = Plasma protein binding, rapid equilibrium dialysis; format: in vitro ADME, human; settings: 10 μM
Protocol: (§2) This assay determines plasma protein binding of a drug/compound and free drug concentration in plasma using rapid equilibrium dialysis, which allow the aqueous component of plasma containing the free drug/compound through a dialysis membrane (MWCO˜8,000).
(§3) Solutions were prepared at 10 mM in DMSO. Dulbecco's phosphate buffered saline (DPBS; pH 7.4) was obtained from Invitrogen (Carlsbad, Calif.). Single-Use RED (rapid equilibrium dialysis) device was obtained from Thermo scientific (Rockford, Ill.). Human plasma was obtained from Innovative Research INC (Novi, Michigan, Ill).
(§4) Sample preparation for plasma protein binding was modified from Waters' method. (Waters et al. (2008) J. Pharm. Sci. 97(10): 4586-95). The Teflon base plate with the RED inserts (MWCO 8 K) were allowed to use without any pre-condition the membrane inserts. Human plasma was thawed and centrifuged at 1000 rpm for 2 min to remove any particulates. Each compound was prepared at 10 μM in human plasma. This was done by adding 1 μL, of drug solution (10 mM in DMSO) to 1000 μL, of human plasma (0.1% DMSO). Spiked plasma solutions (300 μL) were placed into the sample chamber (indicated by the red ring) and 500 μL, of DPBS into the adjacent chamber. The plate was sealed and incubated at 37° C. on an orbital shaker (100 rpm) for 4 hours. After incubation, the seal was removed from the RED plate and the volume of the insert confirmed—little to no volume change occurred. Aliquots (50 μL) were removed from each side of the insert and dispensed into a 96-well deep plate. An equal volume of blank plasma or DPBS was added to the required wells to create analytically identical sample matrices (matrix matching). To each sample 200 μL, of ACN containing 4 μg/mL warfarin IS was added. All of the plates were sealed and mixed well at 600 rpm for 10 min and were centrifuged at 4000 rpm for 20 min. The supernatants (120 μL) were transferred to analytical plates for analysis by LCMS. Conditions for Waters ACQUITY-UPLC-MS-UV system were described separately. The test compound concentrations were quantified in both buffer and plasma chambers via peak areas relative to the internal standard. The percentage of the test compound bound to plasma was calculated on following equations: % Free=(Concentration buffer chamber/concentration plasma chamber)×100% and % Bound=100%-% Free.

[6] = Plasma protein binding, rapid equilibrium dialysis; format: in vitro ADME, mouse
Protocol: as §2, §3, §4

[7] = Plasma stability assay; format: in vitro ADME, human
Protocol: (§5) The plasma stability property of early drug discovery compounds can influence the in vivo efficacy of the test compounds/drugs. Human and/or mouse plasma degradation is determined using multiple time points to monitor the rate of disappearance of the parent compound during incubation.
(§6) Sample preparation for plasma stability was modified from Di et al. (2005) Int. J. Pharm. 297(1-2): 110-119. A set of incubation times of 0, 3, 24, and 48 hour were used. DMSO stock solutions of test compounds were prepared at 10 mM concentration. 1.8 μL of each test compound was each added directly to 1.8 mL of human/mouse plasma to get the final concentration of 10 μM. This compound/matrix was mixed and 70 μL was transferred to 8 time points plates (each in triplicate wells). For the Time 0 plate, 210 μL of cold acetonitrile with internal standard (4 μg/mL warfarin) was added to each well and no incubation needed. For other seven time points' plate, the plate was incubated at 37° C. for required time, followed by quenching of the reaction by adding 210 μL of cold acetonitrile with internal standard (4 μg/ml warfarin) to each well. All of the plates were sealed and mixed well at 600 rpm for 10 min and were centrifuged at 4000 rpm for 20 min. The supernatants (120 μL) were transferred to analytical plates for analysis by LCMS. Conditions for Waters ACQUITY-UPLC-MS-UV system was described separately. The plasma stability was evaluated via the half-life from least-squares fit of the multiple time points based on first-order kinetics.

[8] = Plasma stability assay; format: in vitro ADME, mouse
Protocol: as §5, §6

[9] = read-out: Minimal Inhibitory Concentrations (μM) E. faecails, MIC
[10] = read-out: Minimal Inhibitory Concentrations (μM) MRSA NRS70, MIC
[11] = ATCC29213, read-out: Minimal Inhibitory Concentrations (μM) S. aureus ATCC 29213, MIC
[12] = USA300, read-out: Minimal Inhibitory Concentrations (μM) S. aureus USA 300, MIC
[13] = plasma binding, % Bound, human plasma
[14] = plasma binding, % Bound, mouse plasma
[15] = plasma stability half-life, human plasma, 37° C.
[16] = plasma stability half-life, mouse plasma, 37° C.

SMILES	MIC [1, 9]	MIC [2, 10]	MIC [3, 11]	MIC [4, 12]	Human [5, 13]	Mouse [6, 14]	Human [7, 15]	Mouse [8, 16]	Human (hr) [7, 15]	Mouse (hr) [8, 16]	MIC ([1]; MIC, read-out: Minimal Inhibitory Concentrations (μM) E. faecails)	MIC ([2]; MIC, read-out: Minimal Inhibitory Concentrations (μM) MRSA NRS70)	MIC ([3]; ATCC29213, MIC, read-out: Minimal Inhibitory Concentrations (μM) S. aureus ATCC 29213)	MIC ([4]; USA300, MIC, read-out: Minimal Inhibitory Concentrations (μM) S. aureus USA 300)	Human ([5]; human, 4 h, pH 7.4)	Mouse ([6]; mouse, 4 h, 10 μM, pH 7.4)	Human (hr) ([7]; human, 10 μM)	Mouse (hr) ([8]; mouse, 10 μM)
Cc1ccc(NC(=O)N[C@@H](Cc2cccc(C)c2)C(=O)N[C@H]2COC(=O)[C@@H]3C[C@H](C)CN3C(=O)[C@H](C)NC(=O)[C@@H]3CCCCN3C(=O)[C@@H]3CCCN3C2=O)cc1 (stereo in doubt) [Compound 43, (S)—N-((2S,6S,8AS,14AS,20S,23AS)-2,6-DIMETHYL-5,8,14,19,23-PENTAOXOOCTADECAHYDRO-1H,5H,14H,19H-PYRIDO[2,1-I]DIPYRROLO[2,1-C:2′,1′-L][1]OXA[4,7,10,13]TETRAAZACYCLOHEXADECIN-20-YL)-3-(M-TOLYL)-2-(3-(P-TOLYL)UREIDO)PROPANAMIDE]	2.5 µM (≈ 1.93 µg/mL)	2.5 µM (≈ 1.93 µg/mL)	2.5 µM (≈ 1.93 µg/mL)	2.5 µM (≈ 1.93 µg/mL)	72.9 ± 1.4%	61.7 ± 1.6%	>50 h	21.9 h	–	–	–	–	–	–	–	–	–	–
Cc1ccc(NC(=O)N[C@@H](Cc2cccc(C)c2)C(=O)N[C@@H]2C(=O)N3CCC[C@H]3C(=O)N3CCCC[C@H]3C(=O)N[C@@H](C)C(=O)N3C[C@H](C)C[C@H]3C(=O)O[C@H]2C)cc1 [Compound 1, (S)-3-(M-TOLYL)-2-(3-(P-TOLYL)UREIDO)-N-((2R,6S,8AS,14AS,20S,21S,23AS)-2,6,21-TRIMETHYL-5,8,14,19,23-PENTAOXOOCTADECAHYDRO-1H,5H,14H,19H-PYRIDO[2,1-I]DIPYRROLO[2,1-C:2′,1′-L][1]OXA[4,7,10,13]TETRAAZACYCLOHEXADECIN-20-YL)PROPANAMIDE] ({NH(4-Me-phenyl)-CO}-[Phe(3-Me)][aThr]P[Pip]A[Pro(4R-Me)]; ester 2-C)	1.25 µM (≈ 0.982 µg/mL)	0.156 µM (≈ 0.123 µg/mL)	0.313 µM (≈ 0.246 µg/mL)	< 0.098 µM	98.5%	98.9%	–	–	>>48 hr	>>48 hr	–	–	–	–	–	–	–	–
Cc1ccc(NC(=O)N[C@@H](Cc2cc(C)cc(C)c2)C(=O)N[C@@H]2C(=O)N3CCC[C@H]3C(=O)N3CCCC[C@H]3C(=O)N[C@@H](C)C(=O)N3C[C@H](C)C[C@H]3C(=O)O[C@H]2C)cc1 [Compound 2, (S)-3-(3,5-DIMETHYLPHENYL)-2-(3-(P-TOLYL)UREIDO)-N-((2R,6S,8AS,14AS,20S,21S,23AS)-2,6,21-TRIMETHYL-5,8,14,19,23-PENTAOXOOCTADECAHYDRO-1H,5H,14H,19H-PYRIDO[2,1-I]DIPYRROLO[2,1-C:2′,1′-L][1]OXA[4,7,10,13]TETRAAZACYCLOHEXADECIN-20-YL)PROPANAMIDE] ({NH(4-Me-phenyl)-CO}-[Phe(3,5-Me2)][aThr]P[Pip]A[Pro(4R-Me)]; ester 2-C)	2.5 µM (≈ 2 µg/mL)	0.313 µM (≈ 0.25 µg/mL)	1.25 µM (≈ 1 µg/mL)	0.781 µM (≈ 0.625 µg/mL)	99.3%	99.2%	–	–	>>48 hr	>>48 hr	–	–	–	–	–	–	–	–
Cc1cccc(C[C@H](NC(=O)Nc2ccc(Cl)cc2F)C(=O)N[C@@H]2C(=O)N3CCC[C@H]3C(=O)N3CCCC[C@H]3C(=O)N[C@@H](C)C(=O)N3C[C@H](C)C[C@H]3C(=O)O[C@H]2C)c1 [Compound 3, (S)-2-(3-(4-CHLORO-2-FLUOROPHENYL)UREIDO)-3-(M-TOLYL)-N-((2R,6S,8AS,14AS,20S,21S,23AS)-2,6,21-TRIMETHYL-5,8,14,19,23-PENTAOXOOCTADECAHYDRO-1H,5H,14H,19H-PYRIDO[2,1-I]DIPYRROLO[2,1-C:2′,1′-L][1]OXA[4,7,10,13]TETRAAZACYCLOHEXADECIN-20-YL)PROPANAMIDE] ({NH(4-Cl-2-F-phenyl)-CO}-[Phe(3-Me)][aThr]P[Pip]A[Pro(4R-Me)]; ester 2-C)	–	–	–	–	–	–	–	–	–	–	0.078 µM (≈ 0.0643 µg/mL)	0.078 µM (≈ 0.0643 µg/mL)	0.156 µM (≈ 0.129 µg/mL)	0.156 µM (≈ 0.129 µg/mL)	99.0 ± 0.1%	99.3 ± 0.1%	>>48 hr	>>48 hr
CCOC(=O)c1ccc(NC(=O)N[C@@H](Cc2cccc(C)c2)C(=O)N[C@@H]2C(=O)N3C[C@H](O)C[C@H]3C(=O)N3CCCC[C@H]3C(=O)N[C@@H](C)C(=O)N3C[C@H](C)C[C@H]3C(=O)O[C@H]2C)cc1 [Compound 36, ETHYL 4-(3-((S)-1-(((2R,6S,8AS,14AS,16R,20S,21S,23AS)-16-HYDROXY-2,6,21-TRIMETHYL-5,8,14,19,23-PENTAOXOOCTADECAHYDRO-1H,5H,14H,19H-PYRIDO[2,1-I]DIPYRROLO[2,1-C:2′,1′-L][1]OXA[4,7,10,13]TETRAAZACYCLOHEXADECIN-20-YL)AMINO)-1-OXO-3-(M-TOLYL)PROPAN-2-YL)UREIDO)BENZOATE] ({OEt-4Abz-CO}-[Phe(3-Me)][aThr][Hyp][Pip]A[Pro(4R-Me)]; ester 2-C)	1.25 µM (≈ 1.07 µg/mL)	2.5 µM (≈ 2.15 µg/mL)	1.25 µM (≈ 1.07 µg/mL)	2.5 µM (≈ 2.15 µg/mL)	98.3 ± 8.3%	–	57.50 h	0.30 h	–	–	–	–	–	–	–	–	–	–
Cc1ccc(NC(=O)N[C@@H](Cc2cccc(C)c2)C(=O)N[C@H]2COC(=O)[C@@H]3CCCN3C(=O)[C@H](C)NC(=O)[C@@H]3CCCCN3C(=O)[C@@H]3C[C@@H](O)CN3C2=O)cc1 [Compound 49, (S)—N-((6S,8AS,14AS,16R,20S,23AS)-16-HYDROXY-6-METHYL-5,8,14,19,23-PENTAOXOOCTADECAHYDRO-1H,5H,14H,19H-PYRIDO[2,1-I]DIPYRROLO[2,1-C:2′,1′-L][1]OXA[4,7,10,13]TETRAAZACYCLOHEXADECIN-20-YL)-3-(M-TOLYL)-2-(3-(P-TOLYL)UREIDO)PROPANAMIDE]	–	–	–	–	98.7 ± 8.7%	99.4 ± 9.4%	29.79 h	22.75 h	–	–	–	–	–	–	–	–	–	–
